Data published in patent EP0672421B1, “ENDOTHELIN ACTIVITY INHIBITOR” (Kurashiki Boseki Kabushiki Kaisha, priority 1993, dated 2002).
Positions of bridges follow the written chain, without caps; N, C: chain ends. No end group written: not given here.

Tested on: 3T3 cells
Assay: Increase of intracellular calcium ion concentration by addition of endothelin
Type: cell-based
Conditions: mouse 3T3 cells; endothelin-1 0.01 to 100 ng/ml; relative fluorescence intensity; Figure 4
Protocol: It is known that addition of endothelin into culture cell causes the elevation of intracellular Ca^2+ concentration.
Commercially available 3T3 cells (ATCC No.CCL92) cultured in a flask according to the standard method were used in the experiments. The cells adhered to a inner wall of the flask were harvested by trypsinization treatment, washed three times with Ca^2+-free phosphate buffered saline (PBS) and suspended into 200 µl of the Ca^2+-free PBS. Into the cell suspension, a fluorescent indicator of Ca^2+, FLUO-3AM (Wako chemicals: 1 mM in DMSO solution), was added at a final concentration of 1 µM. The cells were incubated at 37°C for 10 minutes to allow them to uptake the indicator. […]
The increase in relative fluorescence intensity caused by Ca^2+ influx was measured with FACScan of Becton, Dickinson & Co.. In the measurement, a base line was determined over 20 seconds, then a test substance (for example endothelin) was added into the sample and followed the time course of the relative fluorescence intensity for about 80 seconds.
Into each aliquots of the above cell suspension, endothelin-1 was added at a final concentration of 0.01 to 100 ng/ml to observe the changes in the relative fluorescence intensity.

Substance: endothelin-1 (CSCSSLMDKECVYFCHLDIIW; disulfide 1-15, 3-11; ends not checked; UniProt P05305 53-73, looked up)
- increase of intracellular calcium ion concentration: increase of the intracellular calcium ion concentration occurs in proportion to the concentration of endothelin
